Patent US9403839B2, “Pyran-spirocyclic piperidine amides as modulators of ion channels” (Vertex Pharmaceuticals Incorporated, priority 2012, dated 2016)

Target: human NaV subtype, like NaV 1.7 (Homo sapiens, UniProt Q15858)
Assay: E-VIPR optical membrane potential assay with electrical stimulation
Format: cell-based
Conditions: one or more sodium channels; assay and NaV subtype not specified for Table 3; read-out: IC50 Binned Activity Data
Text: Assays for Detecting and Measuring NaV Inhibition Properties of Compound E-VIPR Optical Membrane Potential Assay Method with Electrical Stimulation
Sodium channels are voltage-dependent proteins that can be activated by inducing membrane voltage changes by applying electric fields. The electrical stimulation instrument and methods of use are described in Ion Channel Assay Methods PCT/US01/21652, herein incorporated by reference and are referred to as E-VIPR. The instrument comprises a microtiter plate handler, an optical system for exciting the coumarin dye while simultaneously recording the coumarin and oxonol emissions, a waveform generator, a current- or voltage-controlled amplifier, and a device for inserting electrodes in well. Under integrated computer control, this instrument passes user-programmed electrical stimulus protocols to cells within the wells of the microtiter plate.
24 hours before the assay on E-VIPR, HEK cells expressing human NaV subtype, like NaV 1.7, are seeded in 384-well poly-lysine coated plates at 15,000-20,000 cells per well. Other subtypes are performed in an analogous mode in a cell line expressing the NaV of interest. HEK cells are grown in media (exact composition is specific to each cell type and NaV subtype) supplemented with 10% FBS (Fetal Bovine Serum, qualified; GibcoBRL #16140-071) and 1% Pen-Strep (Penicillin-Streptomycin; GibcoBRL #15140-122). Cells are grown in vented cap flasks, in 90% humidity and 10% CO2, to 100% confluence. They are usually split by trypsinization 1:10 or 1:20, depending on scheduling needs, and grown for 2-3 days before the next split.
100 mg/mL Pluronic F-127 (Sigma #P2443), in dry DMSO
Compound Plates: 384-well round bottom plate, e.g. Corning 384-well Polypropylene Round Bottom #3656
Cell Plates: 384-well tissue culture treated plate, e.g. Greiner #781091-1B
Bath1 buffer. Glucose 10 mM (1.8 g/L), Magnesium Chloride (Anhydrous), 1 mM (0.095 g/L), Calcium Chloride, 2 mM (0.222 g/L), HEPES 10 mM (2.38 g/L), Potassium Chloride, 4.5 mM (0.335 g/L), Sodium Chloride 160 mM (9.35 g/L).
Hexyl Dye Solution: Bath1 Buffer+0.5% β-cyclodextrin (make this prior to use, Sigma #C4767), 8 μM CC2-DMPE+2.5 μM DiSBAC6(3). To make the solution Add volume of 10% Pluronic F127 stock equal to volumes of CC2-DMPE+DiSBAC6(3). The order of preparation is first mix Pluronic and CC2-DMPE, then add DiSBAC6(3) while vortexing, then add Bath1+β-Cyclodextrin.
1) Pre-spot compounds (in neat DMSO) into compound plates. Vehicle control (neat DMSO), the positive control (20 mM DMSO stock tetracaine, 125 μM final in assay) and test compounds are added to each well at 160× desired final concentration in neat DMSO. Final compound plate volume will be 80 μL (80-fold intermediate dilution from 1 μL DMSO spot; 160-fold final dilution after transfer to cell plate). Final DMSO concentration for all wells in assay is 0.625%.
2) Prepare Hexyl Dye Solution.
3) Prepare cell plates. On the day of the assay, medium is aspirated and cells are washed three times with 100 μL of Bath1 Solution, maintaining 25 μL residual volume in each well.
4) Dispense 25 μL per well of Hexyl Dye Solution into cell plates. Incubate for 20-35 minutes at room temp or ambient conditions.
5) Dispense 80 μL per well of Bath1 into compound plates. Acid Yellow-17 (1 mM) is added and Potassium Chloride can be altered from 4.5 to 20 mM depending on the NaV subtype and assay sensitivity.
6) Wash cell plates three times with 100 μL per well of Bath1, leaving 25 of residual volume. Then transfer 25 uL per well from Compound Plates to Cell Plates. Incubate for 20-35 minutes at room temp/ambient condition
7) Read Plate on E-VIPR. Use the current-controlled amplifier to deliver stimulation wave pulses for typically 9 seconds and a scan rate of 400 Hz. A pre-stimulus recording is performed for 0.5 seconds to obtain the un-stimulated intensities baseline. […]

human NaV subtype, like NaV 1.7, sequence (Q15858 whole entry): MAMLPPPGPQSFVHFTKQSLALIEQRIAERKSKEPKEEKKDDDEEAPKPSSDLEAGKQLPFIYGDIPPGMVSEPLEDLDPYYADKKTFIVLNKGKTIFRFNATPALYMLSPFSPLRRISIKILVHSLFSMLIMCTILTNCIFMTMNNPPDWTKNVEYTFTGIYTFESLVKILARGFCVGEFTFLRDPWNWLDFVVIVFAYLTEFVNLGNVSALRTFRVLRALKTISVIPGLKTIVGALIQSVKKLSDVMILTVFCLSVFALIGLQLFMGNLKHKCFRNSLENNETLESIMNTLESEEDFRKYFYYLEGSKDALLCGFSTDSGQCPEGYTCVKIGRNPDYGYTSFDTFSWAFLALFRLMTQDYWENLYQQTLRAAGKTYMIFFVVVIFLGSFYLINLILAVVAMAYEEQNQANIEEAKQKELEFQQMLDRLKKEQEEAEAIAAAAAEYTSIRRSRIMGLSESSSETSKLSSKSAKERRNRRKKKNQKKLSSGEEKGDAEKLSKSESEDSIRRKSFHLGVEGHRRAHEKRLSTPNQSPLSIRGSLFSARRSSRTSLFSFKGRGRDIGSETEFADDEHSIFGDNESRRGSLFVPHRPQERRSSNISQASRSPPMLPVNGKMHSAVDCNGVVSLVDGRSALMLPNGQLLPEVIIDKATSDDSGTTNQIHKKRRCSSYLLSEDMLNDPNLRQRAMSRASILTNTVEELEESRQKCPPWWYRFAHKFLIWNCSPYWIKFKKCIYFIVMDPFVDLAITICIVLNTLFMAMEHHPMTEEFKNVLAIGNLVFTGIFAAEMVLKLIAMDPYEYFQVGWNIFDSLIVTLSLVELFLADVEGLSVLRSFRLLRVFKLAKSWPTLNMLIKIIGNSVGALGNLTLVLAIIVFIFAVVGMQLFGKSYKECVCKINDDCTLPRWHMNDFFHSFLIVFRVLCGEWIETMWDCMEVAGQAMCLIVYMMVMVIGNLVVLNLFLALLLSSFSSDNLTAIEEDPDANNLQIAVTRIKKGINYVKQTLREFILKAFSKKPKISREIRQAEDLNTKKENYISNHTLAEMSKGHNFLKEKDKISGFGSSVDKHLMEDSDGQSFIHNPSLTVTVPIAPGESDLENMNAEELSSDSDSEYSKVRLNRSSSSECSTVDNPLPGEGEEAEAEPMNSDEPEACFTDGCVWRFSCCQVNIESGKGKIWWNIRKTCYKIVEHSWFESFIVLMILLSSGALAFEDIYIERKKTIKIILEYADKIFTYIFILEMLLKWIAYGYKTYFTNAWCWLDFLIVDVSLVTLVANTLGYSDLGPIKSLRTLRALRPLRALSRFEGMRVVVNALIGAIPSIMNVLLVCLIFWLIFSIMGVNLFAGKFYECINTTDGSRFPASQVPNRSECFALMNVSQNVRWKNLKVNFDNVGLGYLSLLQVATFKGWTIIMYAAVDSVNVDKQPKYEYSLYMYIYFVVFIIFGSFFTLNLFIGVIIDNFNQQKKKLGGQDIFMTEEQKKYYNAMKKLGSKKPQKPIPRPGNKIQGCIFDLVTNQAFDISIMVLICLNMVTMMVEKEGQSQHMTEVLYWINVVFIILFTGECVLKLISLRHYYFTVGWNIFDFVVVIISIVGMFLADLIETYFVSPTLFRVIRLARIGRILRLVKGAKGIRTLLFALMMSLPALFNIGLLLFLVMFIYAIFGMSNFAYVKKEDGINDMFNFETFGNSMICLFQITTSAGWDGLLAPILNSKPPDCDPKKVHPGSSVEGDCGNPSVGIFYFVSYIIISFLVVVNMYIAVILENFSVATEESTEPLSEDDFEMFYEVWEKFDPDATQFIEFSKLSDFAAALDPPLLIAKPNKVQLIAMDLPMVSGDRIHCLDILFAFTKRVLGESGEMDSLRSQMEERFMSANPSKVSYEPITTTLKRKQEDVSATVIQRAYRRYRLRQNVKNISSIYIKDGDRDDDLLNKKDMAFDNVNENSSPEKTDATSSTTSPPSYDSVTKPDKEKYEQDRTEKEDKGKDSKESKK

Q: How did the IC50 turn out when `CCOC1CC(c2ccccc2)OC2(CCN(C(=O)c3cc(-c4ccc(C)cc4)on3)CC2)C1` (stereo not drawn) [Compound 53] was run?
A: Its IC50 is 2000 to 5000 nM.

Q: Which IC50 does the source give for `CCOC1CC(c2ccccc2)OC2(CCN(C(=O)c3ccc(OC(C)(C)C)c(OC)c3)CC2)C1` (stereo not drawn) [Compound 137] here?
A: Its IC50 is ≤ 2000 nM.

Q: How did the IC50 turn out when `CCOC1CC(c2cccnc2)OC2(CCN(C(=O)c3ccc(OCCC(C)C)c(OC)c3)CC2)C1` (stereo not drawn) [Compound 39] was run?
A: Its IC50 is ≤ 2000 nM.

Q: `CCOC1CC(c2ccccc2)OC2(CCN(C(=O)c3ccc(C#N)c(C)n3)CC2)C1` (stereo not drawn) [Compound 50] was tested. Which IC50 did it give?
A: Its IC50 is > 5000 nM.

Q: For `CCOc1ncc(Cl)cc1C(=O)N1CCC2(CC1)CC(OCC)CC(c1ccccc1)O2` (stereo not drawn) [Compound 68], which IC50 is on record?
A: The IC50 was 2000 to 5000 nM.

Q: How did the IC50 turn out when `CCOC1CC(c2ccccc2)OC2(CCN(C(=O)c3cnc4ccccc4c3)CC2)C1` (stereo not drawn) [Compound 95] was run?
A: The IC50 was > 5000 nM.

Q: With `CCOC1CC(c2ccccc2)OC2(CCN(C(=O)c3cccnc3N3CCCCC3)CC2)C1` (stereo not drawn) [Compound 64] as the molecule, how does the IC50 read?
A: The IC50 was ≤ 2000 nM.

Q: For `CCOC1CC(c2ccccc2)OC2(CCN(C(=O)c3cccc(C)n3)CC2)C1` (stereo not drawn) [Compound 122], which IC50 is on record?
A: Its IC50 is > 5000 nM.

Q: Which IC50 does the source give for `CCOC1CC(CC)OC2(CCN(C(=O)c3ccc(OC(C)C)c(C)c3)CC2)C1` (stereo not drawn) [Compound 194] here?
A: Its IC50 is 2000 to 5000 nM.

Q: `CCOC1CC(c2cccnc2)OC2(CCN(C(=O)c3ccc(C(C)(C)C)c(OC)c3)CC2)C1` (stereo not drawn) [Compound 37] was tested. Which IC50 did it give?
A: Its IC50 is ≤ 2000 nM.

Q: `CCOC1CC(c2ccccc2)OC2(CCN(C(=O)c3ccc(COCC(F)(F)F)cc3)CC2)C1` (stereo not drawn) [Compound 46] was tested. Which IC50 did it give?
A: Its IC50 is ≤ 2000 nM.

Q: How did the IC50 turn out when `CCOC1CC(c2ccccc2)OC2(CCN(C(=O)c3ccc(N4CCOCC4)cc3)CC2)C1` (stereo not drawn) [Compound 93] was run?
A: Its IC50 is ≤ 2000 nM.

Q: With `CCOC1CC(c2cncs2)OC2(CCN(C(=O)c3ccc(OC(C)C)c(C)c3)CC2)C1` (stereo not drawn) [Compound 18] as the molecule, how does the IC50 read?
A: Its IC50 is ≤ 2000 nM.

Q: For `CCCOC1CC(c2cncs2)OC2(CCN(C(=O)c3ccc(OC(C)C)c(C)c3)CC2)C1` (stereo not drawn) [Compound 8], which IC50 is on record?
A: The IC50 was ≤ 2000 nM.

Q: For `CCOC1CC(c2ccccc2)OC2(CCN(C(=O)c3cccnc3NC(C)C)CC2)C1` (stereo not drawn) [Compound 75], which IC50 is on record?
A: The IC50 was ≤ 2000 nM.

Q: For `CCOC1CC(c2ccccc2)OC2(CCN(C(=O)c3ccc(OC(F)F)c(OC)c3)CC2)C1` (stereo not drawn) [Compound 135], which IC50 is on record?
A: Its IC50 is ≤ 2000 nM.

Q: With `CCOC1CC(c2ccccc2)OC2(CCN(C(=O)c3c[nH]c4ncccc34)CC2)C1` (stereo not drawn) [Compound 89] as the molecule, how does the IC50 read?
A: The IC50 was ≤ 2000 nM.

Q: Which IC50 does the source give for `CCOC1CC(c2ccccc2)OC2(CCN(C(=O)c3ccc(OC(C)C)c(Cl)c3)CC2)C1` (stereo not drawn) [Compound 171] here?
A: The IC50 was ≤ 2000 nM.

Q: Which IC50 does the source give for `CCOC1CC(c2ccccc2)OC2(CCN(C(=O)c3ccc(N4CCCC4)nc3)CC2)C1` (stereo not drawn) [Compound 70] here?
A: The IC50 was 2000 to 5000 nM.

Q: Which IC50 does the source give for `CCOC1CC(c2ccccc2)OC2(CCN(C(=O)c3ccc(O[C@@H](C)CC)c(OC)c3)CC2)C1` (stereo partly drawn) [Compound 139] here?
A: The IC50 was ≤ 2000 nM.

Q: For `CCOC1CC(c2ccccc2)OC2(CCN(C(=O)c3cc(C)c(OC(C)C)c(C)c3)CC2)C1` (stereo not drawn) [Compound 29], which IC50 is on record?
A: Its IC50 is ≤ 2000 nM.

Q: `CCOC1CC(c2cccnc2)OC2(CCN(C(=O)c3ccc(OC(C)C)c(C)n3)CC2)C1` (stereo not drawn) [Compound 38] was tested. Which IC50 did it give?
A: Its IC50 is 2000 to 5000 nM.

Q: `CCOC1CC(c2ccccc2)OC2(CCN(C(=O)c3ccc(F)c(F)c3OC)CC2)C1` (stereo not drawn) [Compound 19] was tested. Which IC50 did it give?
A: Its IC50 is ≤ 2000 nM.

Q: How did the IC50 turn out when `CCOC1CC(c2ccccc2)OC2(CCN(C(=O)c3ccc(C)cc3F)CC2)C1` (stereo not drawn) [Compound 97] was run?
A: The IC50 was ≤ 2000 nM.

Q: For `CCOC1CC(c2ccccc2)OC2(CCN(C(=O)c3ccc(C4(O)CCC4)cc3)CC2)C1` (stereo not drawn) [Compound 176], which IC50 is on record?
A: Its IC50 is ≤ 2000 nM.

Q: With `CCOC1CC(c2ccccc2)OC2(CCN(C(=O)c3ccc(OC(C)C)c(C#N)c3)CC2)C1` (stereo not drawn) [Compound 127] as the molecule, how does the IC50 read?
A: The IC50 was ≤ 2000 nM.

Q: With `CCOC1CC(c2ccccc2)OC2(CCN(C(=O)c3ccc(OC)c(OC(F)F)c3)CC2)C1` (stereo not drawn) [Compound 62] as the molecule, how does the IC50 read?
A: The IC50 was ≤ 2000 nM.
